This note sets out measurements from patent US10781229B2, “Tris- or neopentyl glycol-based amphiphiles and uses thereof” (Industry-University Cooperation Foundation Hanyang …, priority 2015, dated 2020).

The subject of the test is leucine transporter (LeuT). The experiment in a line: LeuT stability by [3H]-Leu scintillation proximity assay (SPA). The format is biochemical, Aquifex aeolicus. As to the method:
Experiments to measure the structural stability of a leucine transporter (LeuT) protein by TDTs or NDTs were conducted. LeuT protein activity was measured by scintillation proximity assay (SPA) utilizing [^3H]-Leu as a ligand. The concentration of TDTs, NDTs, or DDM was (a) CMC+0.04% by weight, or (b) CMC+[…].
In particular, the LeuT stability measurement experiments were conducted according to the following methods. Depending upon the results of UapA and MelB, only TDT-C11, TDT-C12, NDT-C10, NDT-C11 and NDT-C12 among the amphipathic molecules according to the present invention were selectively used. In accordance with a method disclosed in a paper published by G. Deckert, et al. (Nature 1998, 392, 353-358), a wild-type leucine transporter (LeuT) was purified from Aquifex aeolicus. LeuT is expressed in E. coli C41 (DE3) transformed with pET16b encoding a C-terminal 8×His-tagged transporter (the expression plasmid was provided by Dr E. Gouaux, Vollum Institute, Portland, Oreg., USA). In summary, the […] protein was isolated and solubilized with 1.0% by weight of DDM, followed by binding the protein to a Ni^2+-NTA resin (Life Technologies, Denmark) and eluting the same with 20 mM Tris-HCl (pH 8.0), 1 mM NaCl, 199 mM KCl, 0.05% DDM, and 300 mM imidazole. Next, about 1.5 mg/ml of a protein stock was 10-fold diluted with a buffer in which DDM and imidazole are absent, but TDTs, NDTs, or DDM (control) is supplemented such that a final concentration becomes CMC+0.04% by weight or CMC+0.2% by weight. Protein samples were stored at room temperature and centrifuged at a predetermined time. To evaluate protein activity, [^3H]-Leu coupling was measured using scintillation proximity assay (SPA) (M. Quick et al., Proc. Natl, Acad. Sci. U.S.A. 2007, 104, 3603-3608). 5 μL of each protein sample dissolved in a buffer that contained 200 mM NaCl and each test compound was analyzed. SPA reaction was carried out in the presence of 20 nM [^3H]-Leu and copper chelate (His-Tag) YSi beads (both purchased from PerkinElmer, Denmark). [^3H]-Leu coupling was measured by means of a MicroBeta liquid scintillation counter (PerkinElmer).
On the technique in general: SPA uses beads or plates that emit light when radiolabelled molecules are held near them.

In the case of `CCCCCCCCCCCC(CCCCCCCCCCC)COCC(CO[C@@H]1OC(CO)[C@@H](O)C(O)C1O)(CO[C@@H]1OC(CO)[C@@H](O)C(O)C1O)CO[C@@H]1OC(CO)[C@@H](O)C(O)C1O` (some centres unmarked) [NDT-C11], where the note is “CMC+0.04% by weight, room temperature”, the “LeuT protein stabilization ability ([3H]-Leu binding)” value is reported as “most excellent”. Further, the “LeuT protein stabilization, overall comparison” value (conclusion) was “superior to DDM and similar to MNG-3”.
